Assay results published in the NIST ThermoML archive (doi:10.1021/je900124n).
“And” between values parts separate entries of the source, which are not always exact repeats. Equal values may be shown once.

Settings: Fluid (supercritical or subcritical phases), Buoyancy - hydrostatic balance with magnetic suspension - two sinkers

CCC [propane]
Settings | mass density
265 K, 2141.2 kPa | 542.504 kg/m3
265 K, 2141.4 kPa | 542.503 kg/m3
265 K, 2144 kPa | 542.507 kg/m3 and 542.508 kg/m3
265 K, 2144.3 kPa | 542.51 kg/m3
265 K, 2144.8 kPa | 542.509 kg/m3
265 K, 2145 kPa | 542.509 kg/m3
265 K, 3759.4 kPa | 545.171 kg/m3
265 K, 3760 kPa | 545.17 kg/m3
265 K, 3760.5 kPa | 545.17 kg/m3
265 K, 3766.3 kPa | 545.182 kg/m3
265 K, 3771.8 kPa | 545.194 kg/m3
265 K, 4142.6 kPa | 545.789 kg/m3
265 K, 4145 kPa | 545.794 kg/m3
265 K, 4149.1 kPa | 545.797 kg/m3
265 K, 4150.8 kPa | 545.802 kg/m3
265 K, 8329.8 kPa | 552.117 kg/m3
265 K, 8330.5 kPa | 552.12 kg/m3
265 K, 8330.7 kPa | 552.117 kg/m3
265 K, 8331.9 kPa | 552.121 kg/m3
265 K, 8332.3 kPa | 552.121 kg/m3
265 K, 12135 kPa | 557.342 kg/m3
265 K, 12136 kPa | 557.343 kg/m3
265 K, 12137 kPa | 557.343 kg/m3
265 K, 16242 kPa | 562.533 kg/m3
265 K, 16243 kPa | 562.535 kg/m3
265 K, 16245 kPa | 562.537 kg/m3
265 K, 16246 kPa | 562.537 kg/m3
265 K, 20184 kPa | 567.153 kg/m3 and 567.155 kg/m3
265 K, 20189 kPa | 567.157 kg/m3
265 K, 20190 kPa | 567.159 kg/m3
265 K, 20191 kPa | 567.16 kg/m3
265 K, 24029 kPa | 571.368 kg/m3
265 K, 24030 kPa | 571.371 kg/m3
265 K, 24031 kPa | 571.373 kg/m3 and 571.369 kg/m3
265 K, 30007 kPa | 577.453 kg/m3 and 577.455 kg/m3 and 577.457 kg/m3
265 K, 30010 kPa | 577.458 kg/m3 and 577.459 kg/m3
265 K, 34915 kPa | 582.091 kg/m3
265 K, 34916 kPa | 582.091 kg/m3 and 582.092 kg/m3 and 582.09 kg/m3
280 K, 2010.8 kPa | 522.313 kg/m3
280 K, 2011 kPa | 522.314 kg/m3
280 K, 2012.2 kPa | 522.319 kg/m3
280 K, 2013 kPa | 522.322 kg/m3
280 K, 2016.3 kPa | 522.324 kg/m3
280 K, 2020 kPa | 522.336 kg/m3
280 K, 2020.8 kPa | 522.337 kg/m3
280 K, 2021.2 kPa | 522.338 kg/m3
280 K, 2021.3 kPa | 522.335 kg/m3
280 K, 2021.4 kPa | 522.337 kg/m3
280 K, 4077.8 kPa | 526.538 kg/m3
280 K, 4078.2 kPa | 526.542 kg/m3
280 K, 4078.3 kPa | 526.539 kg/m3
280 K, 4078.4 kPa | 526.539 kg/m3
280 K, 8037.8 kPa | 533.834 kg/m3
280 K, 8038.9 kPa | 533.835 kg/m3
280 K, 8039.6 kPa | 533.833 kg/m3
280 K, 8040 kPa | 533.836 kg/m3
280 K, 8040.4 kPa | 533.836 kg/m3
280 K, 12164 kPa | 540.567 kg/m3
280 K, 12165 kPa | 540.568 kg/m3
280 K, 12166 kPa | 540.568 kg/m3
280 K, 12167 kPa | 540.57 kg/m3
280 K, 16052 kPa | 546.301 kg/m3 and 546.302 kg/m3
280 K, 16053 kPa | 546.299 kg/m3 and 546.301 kg/m3
280 K, 16054 kPa | 546.301 kg/m3
280 K, 20169 kPa | 551.856 kg/m3
280 K, 20170 kPa | 551.857 kg/m3
280 K, 20171 kPa | 551.857 kg/m3
280 K, 20173 kPa | 551.86 kg/m3
280 K, 24174 kPa | 556.843 kg/m3
280 K, 24175 kPa | 556.845 kg/m3
280 K, 24178 kPa | 556.848 kg/m3
280 K, 29900 kPa | 563.396 kg/m3 and 563.395 kg/m3
280 K, 29902 kPa | 563.397 kg/m3 and 563.398 kg/m3
280 K, 35491 kPa | 569.254 kg/m3
280 K, 35492 kPa | 569.255 kg/m3
280 K, 35494 kPa | 569.255 kg/m3
280 K, 35496 kPa | 569.259 kg/m3
300 K, 2095.9 kPa | 492.916 kg/m3
300 K, 2096.6 kPa | 492.92 kg/m3
300 K, 2096.7 kPa | 492.918 kg/m3
300 K, 2096.8 kPa | 492.918 kg/m3
300 K, 2097 kPa | 492.917 kg/m3
300 K, 4036.5 kPa | 498.494 kg/m3
300 K, 4037.2 kPa | 498.496 kg/m3
300 K, 4037.3 kPa | 498.493 kg/m3
300 K, 4037.4 kPa | 498.494 kg/m3
300 K, 8037.7 kPa | 508.391 kg/m3
300 K, 8038 kPa | 508.393 kg/m3
300 K, 8038.1 kPa | 508.394 kg/m3
300 K, 8038.4 kPa | 508.391 kg/m3
300 K, 8038.7 kPa | 508.393 kg/m3
300 K, 12024 kPa | 516.758 kg/m3
300 K, 12025 kPa | 516.758 kg/m3 and 516.759 kg/m3
300 K, 16033 kPa | 524.122 kg/m3 and 524.123 kg/m3
300 K, 16035 kPa | 524.125 kg/m3
300 K, 16037 kPa | 524.128 kg/m3
300 K, 20366 kPa | 531.21 kg/m3
300 K, 20369 kPa | 531.216 kg/m3
300 K, 20370 kPa | 531.214 kg/m3
300 K, 23908 kPa | 536.474 kg/m3 and 536.475 kg/m3
300 K, 23909 kPa | 536.476 kg/m3
300 K, 23911 kPa | 536.479 kg/m3
300 K, 29891 kPa | 544.528 kg/m3
300 K, 29892 kPa | 544.529 kg/m3 and 544.528 kg/m3
300 K, 35152 kPa | 550.916 kg/m3
300 K, 35153 kPa | 550.918 kg/m3 and 550.916 kg/m3
300 K, 35154 kPa | 550.917 kg/m3
310 K, 261.67 kPa | 4.6501 kg/m3
310 K, 261.68 kPa | 4.6501 kg/m3 and 4.6502 kg/m3
310 K, 261.69 kPa | 4.6502 kg/m3
310 K, 460.64 kPa | 8.455 kg/m3 and 8.4548 kg/m3 and 8.4549 kg/m3
310 K, 760.19 kPa | 14.7402 kg/m3
310 K, 760.2 kPa | 14.7403 kg/m3
310 K, 760.25 kPa | 14.7415 kg/m3
310 K, 760.28 kPa | 14.7419 kg/m3 and 14.7421 kg/m3
